From US8952024B2, “Herbicidal pyrimidone derivatives” (E I du Pont de Nemours and Company, priority 2009, dated 2015)

Tests used:
Experiment in all cases: Test B pre-/postemergence plant response
Format in all cases: in vivo
[1] = tested on: goosegrass (Eleusine indica); details: for Goosegrass plant response rating (0 to 100 scale): 62 g ai/ha, 0 is no effect
Outline: (§1)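 Visual injury, 0–100 scale (100 = complete control), rated against controls after 13 to 15 days in greenhouse. Pre-emergence: seeds in loam/sand soil, treated at planting. Post-emergence: 1- to 4-leaf plants (2 to 18 cm) in peat/vermiculite medium. Compounds formulated in non-phytotoxic solvent with surfactant.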

[2] = tested on: Italian ryegrass (Lolium multiflorum); details: for Ryegrass, Italian plant response rating (0 to 100 scale): 62 g ai/ha, 0 is no effect
Outline: as §1

corn (Zea mays) = details: for Corn plant response rating (0 to 100 scale): 62 g ai/ha, 0 is no effect
Outline: as §1

[3] = tested on: large crabgrass (Digitaria sanguinalis); details: for Crabgrass, Large plant response rating (0 to 100 scale): 62 g ai/ha, 0 is no effect
Outline: as §1

[4] = tested on: pigweed (Amaranthus retroflexus); details: for Pigweed plant response rating (0 to 100 scale): 62 g ai/ha, 0 is no effect
Outline: as §1

[5] = tested on: Surinam grass (Brachiaria decumbens); details: for Surinam Grass plant response rating (0 to 100 scale): 62 g ai/ha, 0 is no effect
Outline: as §1

[6] = tested on: woolly cupgrass (Eriochloa villosa); details: for Cupgrass, Woolly plant response rating (0 to 100 scale): 62 g ai/ha, 0 is no effect
Outline: as §1

[7] = tested on: lambsquarters (Chenopodium album); details: for Lambsquarters plant response rating (0 to 100 scale): 62 g ai/ha, 0 is no effect
Outline: as §1

[8] = 31 g ai/ha, postemergence, scale 0 to 100, 0 is no effect, 100 is complete control
[9] = postemergence, 100 is complete control, 13 to 15 days
[10] = Postemergence, 250 g ai/ha, scale 0 to 100 (0 no effect, 100 complete control)
[11] = Postemergence, 125 g ai/ha, visual rating after 13 to 15 days, scale 0 (no effect) to 100 (complete control)
[12] = Postemergence, 31 g ai/ha, 0 to 100 scale (0 no effect, 100 complete control)
[13] = Postemergence, 125 g ai/ha, scale 0 to 100 (0 no effect, 100 complete control)
[14] = Postemergence, 250 g ai/ha, scale 0 to 100 (0 no effect, 100 complete control), 13 to 15 days

## CCOCCn1c(-c2ccccc2)ncc(C(=O)C2=C(O)CCCC2=O)c1=O [Compound 96]
[1]; [8]
  Plant response rating, Goosegrass: 70
[1]; [9]
  Goosegrass plant response rating (0 to 100 scale): 70
[1]; [10]
  Plant response rating, Goosegrass: 85
[2]; [8]
  Plant response rating, Ryegrass, Italian: 0
[2]; [9]
  Ryegrass, Italian plant response rating (0 to 100 scale): 5
[2]; [10]
  Plant response rating, Ryegrass, Italian: 10
Corn (Zea mays); [8]
  Plant response rating, Corn: 45
Corn (Zea mays); [9]
  Corn plant response rating (0 to 100 scale): 60
Corn (Zea mays); [11]
  Plant response rating, Corn: 65
Corn (Zea mays); [10]
  Plant response rating, Corn: 80
[3]; [8]
  Plant response rating, Crabgrass, Large: 75
[3]; [9]
  Crabgrass, Large plant response rating (0 to 100 scale): 80
[3]; [11]
  Plant response rating, Crabgrass, Large: 85
[3]; [10]
  Plant response rating, Crabgrass, Large: 90
[4]; [8]
  Plant response rating, Pigweed: 90
[4]; [9]
  Pigweed plant response rating (0 to 100 scale): 95
[4]; [10]
  Plant response rating, Pigweed: 100
[5]; [8]
  Plant response rating, Surinam Grass: 75
[5]; [9]
  Surinam Grass plant response rating (0 to 100 scale): 75
[5]; [10]
  Plant response rating, Surinam Grass: 85
[6]; [8]
  Plant response rating, Cupgrass, Woolly: 70
[6]; [9]
  Cupgrass, Woolly plant response rating (0 to 100 scale): 75
[6]; [11]
  Plant response rating, Cupgrass, Woolly: 85
[6]; [10]
  Plant response rating, Cupgrass, Woolly: 85
[7]; [8]
  Plant response rating, Lambsquarters: 90
[7]; [9]
  Lambsquarters plant response rating (0 to 100 scale): 98
[7]; [10]
  Plant response rating, Lambsquarters: 100

## CCCCCCn1c(-c2ccccc2)ncc(C(=O)C2=C(O)CCCC2=O)c1=O [Compound 94]
[1]; [8]
  Plant response rating, Goosegrass: 45
[1]; [9]
  Goosegrass plant response rating (0 to 100 scale): 70
[1]; [10]
  Plant response rating, Goosegrass: 85
[2]; [8]
  Plant response rating, Ryegrass, Italian: 0
[2]; [9]
  Ryegrass, Italian plant response rating (0 to 100 scale): 0
[2]; [10]
  Plant response rating, Ryegrass, Italian: 10
Corn (Zea mays); [8]
  Plant response rating, Corn: 0
Corn (Zea mays); [9]
  Corn plant response rating (0 to 100 scale): 55
Corn (Zea mays); [11]
  Plant response rating, Corn: 70
Corn (Zea mays); [10]
  Plant response rating, Corn: 80
[3]; [8]
  Plant response rating, Crabgrass, Large: 70
[3]; [9]
  Crabgrass, Large plant response rating (0 to 100 scale): 75
[3]; [11]
  Plant response rating, Crabgrass, Large: 90
[3]; [10]
  Plant response rating, Crabgrass, Large: 90
[4]; [8]
  Plant response rating, Pigweed: 100
[4]; [9]
  Pigweed plant response rating (0 to 100 scale): 100
[4]; [10]
  Plant response rating, Pigweed: 100
[5]; [9]
  Surinam Grass plant response rating (0 to 100 scale): 60
[5]; [10]
  Plant response rating, Surinam Grass: 80
[6]; [9]
  Cupgrass, Woolly plant response rating (0 to 100 scale): 65
[6]; [11]
  Plant response rating, Cupgrass, Woolly: 65
[6]; [10]
  Plant response rating, Cupgrass, Woolly: 70
[7]; [8]
  Plant response rating, Lambsquarters: 80
[7]; [9]
  Lambsquarters plant response rating (0 to 100 scale): 95
[7]; [10]
  Plant response rating, Lambsquarters: 100

## Cc1ccc(-n2c(-c3cc(F)cc(F)c3)ncc(C(=O)C3=C(O)CCCC3=O)c2=O)cc1 [Compound 162]
[1]; [12]
  Plant response rating, Goosegrass: 60
[1]; [13]
  Plant response rating, Goosegrass: 90
[1]; [14]
  Plant response rating, Goosegrass: 98
[2]; [12]
  Plant response rating, Ryegrass, Italian: 40
[2]; [13]
  Plant response rating, Ryegrass, Italian: 80
[2]; [14]
  Plant response rating, Ryegrass, Italian: 90
Corn (Zea mays); [12]
  Plant response rating, Corn: 50
Corn (Zea mays); [13]
  Plant response rating, Corn: 80
Corn (Zea mays); [14]
  Plant response rating, Corn: 85
[3]; [12]
  Plant response rating, Crabgrass, Large: 80
[3]; [13]
  Plant response rating, Crabgrass, Large: 98
[3]; [14]
  Plant response rating, Crabgrass, Large: 98
[4]; [12]
  Plant response rating, Pigweed: 100
[4]; [13]
  Plant response rating, Pigweed: 100
[4]; [14]
  Plant response rating, Pigweed: 100
[5]; [12]
  Plant response rating, Surinam Grass: 65
[5]; [13]
  Plant response rating, Surinam Grass: 75
[5]; [14]
  Plant response rating, Surinam Grass: 85
[6]; [12]
  Plant response rating, Cupgrass, Woolly: 90
[6]; [13]
  Plant response rating, Cupgrass, Woolly: 100
[6]; [14]
  Plant response rating, Cupgrass, Woolly: 100
[7]; [12]
  Plant response rating, Lambsquarters: 80
[7]; [13]
  Plant response rating, Lambsquarters: 98
[7]; [14]
  Plant response rating, Lambsquarters: 100

## COCCOCCn1c(-c2ccccc2)ncc(C(=O)C2=C(O)CCCC2=O)c1=O [Compound 91]
[1]; [8]
  Plant response rating, Goosegrass: 30
[1]; [9]
  Goosegrass plant response rating (0 to 100 scale): 75
[1]; [10]
  Plant response rating, Goosegrass: 85
[2]; [8]
  Plant response rating, Ryegrass, Italian: 0
[2]; [9]
  Ryegrass, Italian plant response rating (0 to 100 scale): 5
[2]; [10]
  Plant response rating, Ryegrass, Italian: 20
Corn (Zea mays); [8]
  Plant response rating, Corn: 25
Corn (Zea mays); [9]
  Corn plant response rating (0 to 100 scale): 35
Corn (Zea mays); [11]
  Plant response rating, Corn: 45
Corn (Zea mays); [10]
  Plant response rating, Corn: 60
[3]; [8]
  Plant response rating, Crabgrass, Large: 80
[3]; [9]
  Crabgrass, Large plant response rating (0 to 100 scale): 95
[3]; [11]
  Plant response rating, Crabgrass, Large: 98
[3]; [10]
  Plant response rating, Crabgrass, Large: 100
[4]; [8]
  Plant response rating, Pigweed: 100
[4]; [9]
  Pigweed plant response rating (0 to 100 scale): 100
[4]; [10]
  Plant response rating, Pigweed: 100
[5]; [8]
  Plant response rating, Surinam Grass: 85
[5]; [9]
  Surinam Grass plant response rating (0 to 100 scale): 98
[5]; [10]
  Plant response rating, Surinam Grass: 98
[6]; [8]
  Plant response rating, Cupgrass, Woolly: 70
[6]; [9]
  Cupgrass, Woolly plant response rating (0 to 100 scale): 85
[6]; [11]
  Plant response rating, Cupgrass, Woolly: 98
[6]; [10]
  Plant response rating, Cupgrass, Woolly: 98
[7]; [8]
  Plant response rating, Lambsquarters: 85
[7]; [9]
  Lambsquarters plant response rating (0 to 100 scale): 100
[7]; [10]
  Plant response rating, Lambsquarters: 100
